Patent US9198892B2, “Composition and/or method for preventing onset and/or recurrence of cardiovascular events” (MOCHIDA PHARMACEUTICAL CO., LTD., priority 2005, dated 2015)

Experiments:
[1] = Five-year large scale randomized unblinded controlled trial of EPA-E: onset of cardiovascular events; assay type: in vivo, human; settings: five years; for incidence rate of the cardiovascular events / Cases with the cardiovascular events/all cases: EPA-E group
Procedure: (§1) The observation was conducted by a large scale randomized unblinded controlled trial of the EPA-E group (9,326 cases) and the control group (9,319 cases). The patients were randomized into the groups at the beginning of the trial so that no significant difference is found between the groups in the background factors of the patients, namely, age, sex ratio, history and complication, type and proportion of the HMG-CoA RI, serum lipid concentration, and the like. The patients of both groups were under nutritional counseling, and HMG-CoA RI was administered to them as a base drug.
The data was collected from […] participant patients by about 4,900 participant physicians in about 2,900 participant facilities with sufficient case number, randomization, and the strictness required for the controlled trial. For example, in choosing the participant patients, the serum T-Cho concentration was measured twice at an interval of two to four weeks except for the cases where the patients underwent an adequate nutritional consulting with high compliance and the cases where the fasting blood was collected after cessation of the antilipidemic drug, in which the measurement was conducted only once. While untreated patients were preferable, in the case of patients who had been taking an antilipidemic drug for more than six months at the start of the trial, four weeks of drug holidays (eight weeks in the case of probucol) were given. Patients who were administered with the antilipidemic drug for six months or less at the start of the trial were admitted in the trial with no drug holiday, and when the drug was HMG-CoA RI, its administration was continued while other drugs were changed to HMG-CoA RI.
In order to exclude cardiovascular events in the unstable period after the onset of myocardial infarction and cardiovascular events such as restenosis in the unstable period which is conceived to be caused by the angioplasty itself, the patients at or within six months after the acute myocardial infarction and patients at or within six months after the cardiovascular angioplasty were excluded from the trial subjects, and only patients who are beyond six months after such events and who are conceived to be in the stable period were included in the trial. In addition, patients who are inadequate for the examination of the action of preventing the onset of cardiovascular events for a long time which is the object of this trial, for example, patients of unstable angina pectoris, patients with history or complication of serious heart diseases (such as severe arrhythmia, heart failure, cardiomyopathy, valvular disease, and congenital heart disease), patients at or within six months from the onset of cerebrovascular disorder, and patients with complication of serious liver disease or kidney disease, as well as the patients whose participation was judged to be inappropriate by the attending physician were excluded from the trial.
(§2) Epadel (Mochida Pharmaceutical Co., Ltd.) was orally administered as EPA-E typically at an adult dose of 600 mg after the meal three times a day. In the case of abnormal serum TG, however, the dose could be increased to 900 mg per administration and three times a day.
(§3) Pravastatin sodium (Mevalotin tablets and fine granules, Sankyo Co., Ltd.), simvastatin (Lipovas tablets, Banyu Pharmaceutical Co., Ltd.), or atorvastatin calcium hydrate (Lipitor tablets, Astellas Pharma Inc. and Pfizer) was used for the HMG-CoA RI, and these drugs were orally administered according to the predetermined dosage regimen.
For five years from before the start of the trial to the end of the trial, the concentration of the serum lipid (T-Cho, HDL-Cho, and TG) was periodically measured, and LDL-Cho was calculated by the equation of T-Cho-HDL-Cho-(TG/5). […]

[2] = Serum lipid concentration in the five-year EPA-E trial; assay type: in vivo, human
Procedure: as §1, §2, §3
For five years from before the start of the trial to the end of the trial, the concentration of the serum lipid (T-Cho, HDL-Cho, and TG) was periodically measured, and LDL-Cho was calculated by the equation of T-Cho-HDL-Cho-(TG/5). In addition, onset of cardiovascular events (cardiovascular death (fatal myocardial infarction and sudden cardiac death), nonfatal myocardial infarction, cardiovascular angioplasty, new onset of rest angina or effort angina, and destabilization of angina pectoris (hospitalization and cardiovascular angioplasty)) was observed.

[3] = oral 600 mg three times a day immediately after meals (up to 900 mg when serum TG is abnormal); cited from earlier work
[4] = two-year administration after PTCA; cited from earlier work
[5] = oral, cited from earlier work
[6] = Cardiovascular angioplasty history: No
[7] = Cardiovascular angioplasty history: Yes
[8] = Myocardial Infarction history: No
[9] = Myocardial Infarction history: Yes
[10] = EPA-E group with HMG-CoA RI, five years

CC/C=C\C/C=C\C/C=C\C/C=C\C/C=C\CCCC(=O)OCC [EPA-E, ethyl icosapentate]
Odds ratio (incidence rate of the EPA-E group)/(incidence rate of the control group) ([1]; All Cases): 0.808 | Odds ratio (EPA-E group/control group) [1, 6]: 0.862 | Odds ratio (EPA-E group/control group) [1, 7]: 0.671 | incidence rate of the cardiovascular events [1, 6]: (2.10) % | Cases with the cardiovascular events/all cases [1, 7]: 77/533 | incidence rate of the cardiovascular events [1, 7]: (14.45) % | incidence rate of the cardiovascular events [1, 8]: (2.05) % | Cases with the cardiovascular events/all cases [1, 9]: 82/548 | incidence rate of the cardiovascular events [1, 9]: (14.96) % | Odds ratio (EPA-E group/control group) [1, 8]: 0.811 | Odds ratio (EPA-E group/control group) [1, 9]: 0.744 | reduction of the incidence rate of the cardiovascular events compared to the control group ([1]; all cases): about 19% | decrease of the incidence rate of the cardiovascular events compared to the control group ([1]; patients with history of cardiovascular angioplasty): about 33% | decrease of the incidence rate of the cardiovascular events compared to the control group ([1]; patients with history of myocardial infarction): about 26% | serum HDL-Cho concentration [2, 10]: no significant change | serum TG concentration [2, 10]: decreased | serum LDL-Cho concentration ([2]; EPA-E group with HMG-CoA RI, five years, LDL-Cho calculated): decreased | serum T-Cho concentration ([2]; EPA-E group with HMG-CoA RI, observation period of five years): decreased | decrease in the serum TG concentration, EPA-E group versus control group ([2]; five years): more significant | serum T-Cho concentration reduced [3]: 3-6%

CC[C@H](C)C(=O)O[C@H]1C[C@H](O)C=C2C=C[C@H](C)[C@H](CC[C@@H](O)C[C@@H](O)CC(=O)O)[C@H]21 [pravastatin sodium]
restenosis rate [4]: reduced the restenosis rate | serum HDL-Cho concentration increased ([5]; average 4.9 years): 5% | serum LDL-Cho concentration decreased ([5]; average 4.9 years): 26% | serum TG decreased ([5]; average 4.9 years): 12% | total incidence rate of nonfatal myocardial infarction and cardiovascular death decreased ([5]; average 4.9 years): 31% | serum T-Cho concentration decreased ([5]; average period of 4.9 years, male hyperlipidemia patients with no history of myocardial infarction): 20%
